In PubChem BioAssay (NCI):
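All cell lines were grown in 96-well plates and treated with compound for 48 hours. The concentration for full growth arrest is given as TGI.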

Legend:
Assay in all cases: DTP human tumour cell line panel, 48 h
786-0 renal = tested on: 786-0 renal
BT-549 breast = tested on: BT-549 breast
EKVX NSCLC = tested on: EKVX NSCLC
LOX IMVI melanoma = tested on: LOX IMVI melanoma
NCI-H226 lung = tested on: NCI-H226 lung
NCI-H522 lung = tested on: NCI-H522 lung
NCI/ADR-RES ovarian = tested on: NCI/ADR-RES ovarian
SF-539 CNS = tested on: SF-539 CNS
SK-MEL-5 melanoma = tested on: SK-MEL-5 melanoma
SN12C renal = tested on: SN12C renal

SMILES | TGI (786-0 renal) [µM] | TGI (BT-549 breast) [µM] | TGI (EKVX NSCLC) [µM] | TGI (LOX IMVI melanoma) [µM] | TGI (NCI-H226 lung) [µM] | TGI (NCI-H522 lung) [µM] | TGI (NCI/ADR-RES ovarian) [µM] | TGI (SF-539 CNS) [µM] | TGI (SK-MEL-5 melanoma) [µM] | TGI (SN12C renal) [µM]
CSc1c(C)n([O-])c2cc(Cl)c(Cl)cc2[n+]1=O | 33.2 | 32.7 | 31 | 41.3 | 27.1 | 29.3 | 39.3 | > 100 | 34.3 | 33.3
NC(=S)NS(=O)(=O)c1ccc(Cl)cc1 | > 100 | > 100 | > 100 | > 100 | > 100 | > 100 | > 100 | > 100 | > 100 | > 100
CCCCOc1ccc(S(=O)(=O)/N=C(\NO)Nc2ccc(Cl)cc2)cc1 | 29.2 | 26.7 | 29.5 | 31 | 43.4 | 30.1 | 33.1 | 37 | 28.1 | 31
CC1C(c2ccccc2)NC(c2ccccc2)CC1(N)C#N (stereo not given) | > 100 | > 100 | > 100 | > 100 | > 100 | > 100 | > 100 | > 100 | > 100 | > 100
COc1ccc(/N=N/C(=NNC(=O)c2ccc(C)cc2)c2ccc(N(C)C)cc2)cc1 | > 100 | 82.9 | > 100 | > 100 | > 100 | 97.9 | > 100 | > 100 | > 95.3 | > 100
CCOC(=O)CCC(NC(=O)c1ccc(Nc2nc3ccccc3nc2C(=O)OCC)s1)C(=O)OCC (stereo not given) | > 100 | > 100 | > 100 | > 100 | > 100 | > 100 | > 100 | > 100 | > 100 | > 100
NS(=O)(=O)c1ccc(NCc2nc3ccccc3[nH]2)cc1 | > 100 | > 100 | > 100 | > 100 | > 100 | > 100 | > 100 | > 100 | > 100 | > 100
CCN(CCC#N)C(=O)Nc1ccccc1 | > 100 | > 100 | > 100 | > 100 | > 100 | > 100 | > 100 | > 100 | > 100 | > 100
